The values below come from patent US20110020463A1, “THERAPEUTIC AGENT FOR FIBROMYALGIA SYNDROME AND THERAPEUTIC AGENT FOR PAIN CAUSED BY MUSCLE SPASM” (priority 2008, published 2011).

One experiment relates to fibromyalgia syndrome. As to conditions: human, in vivo.
The test system of a further experiment is right blepharism. The conditions noted are these: human, in vivo.

Take botulinum toxin: the “effect on generalized myalgia” value in the experiment on fibromyalgia syndrome is “no effect”. Besides, the “effect on right blepharism (eyelid)” value with right blepharism is given as “extremely effective”.
